Experimental data taken from PMC9481151, “Discovery of new symmetrical and asymmetrical nitrile-containing 1,4-dihydropyridine derivatives as dual kinases and P-glycoprotein inhibitors: synthesis, in vitro assays, and in silico studies” (Journal of Enzyme Inhibition and Medicinal Chemistry, 2022).

How the values were obtained:
CCRF-CEM = assay: NCI single dose (10 µM) SRB screen; format: cell-based, human; settings: leukaemia, 48 h
HL-60(TB) = assay: NCI single dose (10 µM) SRB screen; format: cell-based, human; settings: leukaemia, 48 h
K-562 = assay: NCI single dose (10 µM) SRB screen; format: cell-based, human; settings: leukaemia, 48 h
MOLT-4 = assay: NCI single dose (10 µM) SRB screen; format: cell-based, human; settings: leukaemia, 48 h
RPMI-8226 = assay: NCI single dose (10 µM) SRB screen; format: cell-based, human; settings: leukaemia, 48 h
SR = assay: NCI single dose (10 µM) SRB screen; format: cell-based, human; settings: leukaemia, 48 h
A549/ATCC = assay: NCI single dose (10 µM) SRB screen; format: cell-based, human; settings: non-small cell lung cancer, 48 h
EKVX = assay: NCI single dose (10 µM) SRB screen; format: cell-based, human; settings: non-small cell lung cancer, 48 h
HOP-62 = assay: NCI single dose (10 µM) SRB screen; format: cell-based, human; settings: non-small cell lung cancer, 48 h
HOP-92 = assay: NCI single dose (10 µM) SRB screen; format: cell-based, human; settings: non-small cell lung cancer, 48 h
NCI-H226 = assay: NCI single dose (10 µM) SRB screen; format: cell-based, human; settings: non-small cell lung cancer, 48 h
NCI-H23 = assay: NCI single dose (10 µM) SRB screen; format: cell-based, human; settings: non-small cell lung cancer, 48 h
NCI-H322M = assay: NCI single dose (10 µM) SRB screen; format: cell-based; settings: non-small cell lung cancer, 48 h
NCI-H460 = assay: NCI single dose (10 µM) SRB screen; format: cell-based, human; settings: non-small cell lung cancer, 48 h
NCI-H522 = assay: NCI single dose (10 µM) SRB screen; format: cell-based, human; settings: non-small cell lung cancer, 48 h
COLO 205 = assay: NCI single dose (10 µM) SRB screen; format: cell-based, human; settings: colon cancer, 48 h
HCC-2998 = assay: NCI single dose (10 µM) SRB screen; format: cell-based, human; settings: colon cancer, 48 h
HCT-116 = assay: NCI single dose (10 µM) SRB screen; format: cell-based, human; settings: colon cancer, 48 h
HCT-15 = assay: NCI single dose (10 µM) SRB screen; format: cell-based, human; settings: colon cancer, 48 h
HT29 = assay: NCI single dose (10 µM) SRB screen; format: cell-based, human; settings: colon cancer, 48 h
KM12 = assay: NCI single dose (10 µM) SRB screen; format: cell-based, human; settings: colon cancer, 48 h
SW-620 = assay: NCI single dose (10 µM) SRB screen; format: cell-based, human; settings: colon cancer, 48 h
SF-268 = assay: NCI single dose (10 µM) SRB screen; format: cell-based, human; settings: CNS cancer, 48 h
SF-295 = assay: NCI single dose (10 µM) SRB screen; format: cell-based, human; settings: CNS cancer, 48 h
SF-539 = assay: NCI single dose (10 µM) SRB screen; format: cell-based, human; settings: CNS cancer, 48 h
SNB-19 = assay: NCI single dose (10 µM) SRB screen; format: cell-based, human; settings: CNS cancer, 48 h
SNB-75 = assay: NCI single dose (10 µM) SRB screen; format: cell-based, human; settings: CNS cancer, 48 h
U251 = assay: NCI single dose (10 µM) SRB screen; format: cell-based, human; settings: CNS cancer, 48 h
LOX IMVI = assay: NCI single dose (10 µM) SRB screen; format: cell-based, human; settings: melanoma, 48 h
MALME-3M = assay: NCI single dose (10 µM) SRB screen; format: cell-based, human; settings: melanoma, 48 h
M14 = assay: NCI single dose (10 µM) SRB screen; format: cell-based, human; settings: melanoma, 48 h
MDA-MB-435 = assay: NCI single dose (10 µM) SRB screen; format: cell-based, human; settings: melanoma, 48 h
SK-MEL-2 = assay: NCI single dose (10 µM) SRB screen; format: cell-based, human; settings: melanoma, 48 h
SK-MEL-28 = assay: NCI single dose (10 µM) SRB screen; format: cell-based, human; settings: melanoma, 48 h
SK-MEL-5 = assay: NCI single dose (10 µM) SRB screen; format: cell-based, human; settings: melanoma, 48 h
UACC-257 = assay: NCI single dose (10 µM) SRB screen; format: cell-based, human; settings: melanoma, 48 h
UACC-62 = assay: NCI single dose (10 µM) SRB screen; format: cell-based, human; settings: melanoma, 48 h
IGROV1 = assay: NCI single dose (10 µM) SRB screen; format: cell-based, human; settings: ovarian cancer, 48 h
OVCAR-3 = assay: NCI single dose (10 µM) SRB screen; format: cell-based, human; settings: ovarian cancer, 48 h
OVCAR-4 = assay: NCI single dose (10 µM) SRB screen; format: cell-based, human; settings: ovarian cancer, 48 h
OVCAR-5 = assay: NCI single dose (10 µM) SRB screen; format: cell-based, human; settings: ovarian cancer, 48 h
OVCAR-8 = assay: NCI single dose (10 µM) SRB screen; format: cell-based, human; settings: ovarian cancer, 48 h
NCI/ADR-RES = assay: NCI single dose (10 µM) SRB screen; format: cell-based, human; settings: ovarian cancer, 48 h
SK-OV-3 = assay: NCI single dose (10 µM) SRB screen; format: cell-based, human; settings: ovarian cancer, 48 h
786-0 = assay: NCI single dose (10 µM) SRB screen; format: cell-based, human; settings: renal cancer, 48 h
A498 = assay: NCI single dose (10 µM) SRB screen; format: cell-based, human; settings: renal cancer, 48 h
ACHN = assay: NCI single dose (10 µM) SRB screen; format: cell-based, human; settings: renal cancer, 48 h
CAKI-1 = assay: NCI single dose (10 µM) SRB screen; format: cell-based, human; settings: renal cancer, 48 h
RXF 393 = assay: NCI single dose (10 µM) SRB screen; format: cell-based, human; settings: renal cancer, 48 h
SN12C = assay: NCI single dose (10 µM) SRB screen; format: cell-based, human; settings: renal cancer, 48 h
TK-10 = assay: NCI single dose (10 µM) SRB screen; format: cell-based, human; settings: renal cancer, 48 h
UO-31 = assay: NCI single dose (10 µM) SRB screen; format: cell-based, human; settings: renal cancer, 48 h
PC-3 = assay: NCI single dose (10 µM) SRB screen; format: cell-based, human; settings: prostate cancer, 48 h
DU-145 = assay: NCI single dose (10 µM) SRB screen; format: cell-based, human; settings: prostate cancer, 48 h
MCF7 = assay: NCI single dose (10 µM) SRB screen; format: cell-based, human; settings: breast cancer, 48 h
MDA-MB-231 = assay: NCI single dose (10 µM) SRB screen; format: cell-based, human; settings: breast cancer, 48 h
HS578T = assay: NCI single dose (10 µM) SRB screen; format: cell-based, human; settings: breast cancer, 48 h
BT-549 = assay: NCI single dose (10 µM) SRB screen; format: cell-based, human; settings: breast cancer, 48 h
T-47D = assay: NCI single dose (10 µM) SRB screen; format: cell-based, human; settings: breast cancer, 48 h
MDA-MB-468 = assay: NCI single dose (10 µM) SRB screen; format: cell-based, human; settings: breast cancer, 48 h
NCI 60 cancer cell lines = assay: NCI single dose (10 µM) SRB screen, mean over panel; format: cell-based, human; settings: mean over 60 cell lines, 48 h
Staphylococcus aureus = assay: Agar well diffusion method; settings: relative to ciprofloxacin
Bacillus subtilis = assay: Agar well diffusion method; settings: relative to ciprofloxacin
Escherichia coli = assay: Agar well diffusion method; settings: relative to ciprofloxacin
Pseudomonas aeruginosa = assay: Agar well diffusion method; settings: relative to ciprofloxacin
Candida albicans = assay: Agar well diffusion method; settings: relative to clotrimazole
Aspergillus flavus = assay: Agar well diffusion method; settings: relative to clotrimazole

For CC1=C(C(=O)OCC(C)C)C(c2cccc(C#N)c2)C(C(=O)OCC(C)C)=C(C)N1 [Compound 1d, Diisobutyl 4-(3-cyanophenyl)-2,6-dimethyl-1,4-dihydropyridine-3,5-dicarboxylate], the “GI% CCRF-CEM” value (CCRF-CEM) was 32%, the “GI% HL-60(TB)” value (HL-60(TB)) was 30% and the “GI% K-562” value (K-562) was 44%. The “GI% MOLT-4” value (MOLT-4) was 57%, the “GI% RPMI-8226” value (RPMI-8226) was 35% and the “GI% SR” value (SR) was 52%. For the same molecule, the “GI% A549/ATCC” value (A549/ATCC) was 25%, the “GI% EKVX” value (EKVX) was 27% and the “GI% HOP-62” value (HOP-62) was 12%. For the same molecule, the “GI% HOP-92” value (HOP-92) was 37%, the “GI% NCI-H226” value (NCI-H226) was 25% and the “GI% NCI-H23” value (NCI-H23) was 14%. The “GI% NCI-H322M” value (NCI-H322M) was “– (Only GI% ≥ 10 are shown)”, the “GI% NCI-H460” value (NCI-H460) was 13% and the “GI% NCI-H522” value (NCI-H522) was 21%. For the same molecule, the “GI% COLO 205” value (COLO 205) was “– (Only GI% ≥ 10 are shown)”, the “GI% HCC-2998” value (HCC-2998) was “– (Only GI% ≥ 10 are shown)” and the “GI% HCT-116” value (HCT-116) was 32%. For the same molecule, the “GI% HCT-15” value (HCT-15) was 31%, the “GI% HT29” value (HT29) was 12% and the “GI% KM12” value (KM12) was 24%. For the same molecule, the “GI% SW-620” value (SW-620) was “– (Only GI% ≥ 10 are shown)”, the “GI% SF-268” value (SF-268) was 25% and the “GI% SF-295” value (SF-295) was 32%. The “GI% SF-539” value (SF-539) was 12%, the “GI% SNB-19” value (SNB-19) was “– (Only GI% ≥ 10 are shown)” and the “GI% SNB-75” value (SNB-75) was 32%. For the same molecule, the “GI% U251” value (U251) was 21%, the “GI% LOX IMVI” value (LOX IMVI) was 10% and the “GI% MALME-3M” value (MALME-3M) was “– (Only GI% ≥ 10 are shown)”. For the same molecule, the “GI% M14” value (M14) was “– (Only GI% ≥ 10 are shown)”, the “GI% MDA-MB-435” value (MDA-MB-435) was “– (Only GI% ≥ 10 are shown)” and the “GI% SK-MEL-2” value (SK-MEL-2) was 14%. The “GI% SK-MEL-28” value (SK-MEL-28) was “– (Only GI% ≥ 10 are shown)”, the “GI% SK-MEL-5” value (SK-MEL-5) was 17% and the “GI% UACC-257” value (UACC-257) was 17%. The “GI% UACC-62” value (UACC-62) was 23%, the “GI% IGROV1” value (IGROV1) was “– (Only GI% ≥ 10 are shown)” and the “GI% OVCAR-3” value (OVCAR-3) was 10%. For the same molecule, the “GI% OVCAR-4” value (OVCAR-4) was 16%, the “GI% OVCAR-5” value (OVCAR-5) was “– (Only GI% ≥ 10 are shown)” and the “GI% OVCAR-8” value (OVCAR-8) was 11%. The “GI% NCI/ADR-RES” value (NCI/ADR-RES) was 20%, the “GI% SK-OV-3” value (SK-OV-3) was “– (Only GI% ≥ 10 are shown)” and the “GI% 786-0” value (786-0) was 18%. The “GI% A498” value (A498) was 17%, the “GI% ACHN” value (ACHN) was 16% and the “GI% CAKI-1” value (CAKI-1) was 38%. The “GI% RXF 393” value (RXF 393) was 42%, the “GI% SN12C” value (SN12C) was 10% and the “GI% TK-10” value (TK-10) was “– (Only GI% ≥ 10 are shown)”. The “GI% UO-31” value (UO-31) was 20%, the “GI% PC-3” value (PC-3) was 57% and the “GI% DU-145” value (DU-145) was “– (Only GI% ≥ 10 are shown)”. The “GI% MCF7” value (MCF7) was 39%, the “GI% MDA-MB-231” value (MDA-MB-231) was 17% and the “GI% HS578T” value (HS578T) was 25%. For the same molecule, the “GI% BT-549” value (BT-549) was “– (Only GI% ≥ 10 are shown)”, the “GI% T-47D” value (T-47D) was 54% and the “GI% MDA-MB-468” value (MDA-MB-468) was 30%. The “Mean GI%” value (NCI 60 cancer cell lines) was 19%, the melting point was 146 to 148 °C and the “% activity index, S. aureus” value (Staphylococcus aureus) was “– (Values below 25 are of limited value and not shown as they refer either to inactive or non-diffusing compounds)”. For the same molecule, the “% activity index, B. subtilis” value (Bacillus subtilis) was “– (Values below 25 are of limited value and not shown as they refer either to inactive or non-diffusing compounds)”, the “% activity index, E. coli” value (Escherichia coli) was “– (Values below 25 are of limited value and not shown as they refer either to inactive or non-diffusing compounds)” and the “% activity index, P. aeruginosa” value (Pseudomonas aeruginosa) was “– (Values below 25 are of limited value and not shown as they refer either to inactive or non-diffusing compounds)”. For the same molecule, the “% activity index, C. albicans” value (Candida albicans) was “– (Values below 25 are of limited value and not shown as they refer either to inactive or non-diffusing compounds)” and the “% activity index, A. flavus” value (Aspergillus flavus) was “– (Values below 25 are of limited value and not shown as they refer either to inactive or non-diffusing compounds)”.
